T1: MMT from Arabidopsis thaliana (Arabidopsis thaliana, UniProt Q9LTB2)
T1 construct: gene MMT1; recombinant, probably pMALc2x (MBP fusion), E. coli
T1 sequence (Q9LTB2 2-1071): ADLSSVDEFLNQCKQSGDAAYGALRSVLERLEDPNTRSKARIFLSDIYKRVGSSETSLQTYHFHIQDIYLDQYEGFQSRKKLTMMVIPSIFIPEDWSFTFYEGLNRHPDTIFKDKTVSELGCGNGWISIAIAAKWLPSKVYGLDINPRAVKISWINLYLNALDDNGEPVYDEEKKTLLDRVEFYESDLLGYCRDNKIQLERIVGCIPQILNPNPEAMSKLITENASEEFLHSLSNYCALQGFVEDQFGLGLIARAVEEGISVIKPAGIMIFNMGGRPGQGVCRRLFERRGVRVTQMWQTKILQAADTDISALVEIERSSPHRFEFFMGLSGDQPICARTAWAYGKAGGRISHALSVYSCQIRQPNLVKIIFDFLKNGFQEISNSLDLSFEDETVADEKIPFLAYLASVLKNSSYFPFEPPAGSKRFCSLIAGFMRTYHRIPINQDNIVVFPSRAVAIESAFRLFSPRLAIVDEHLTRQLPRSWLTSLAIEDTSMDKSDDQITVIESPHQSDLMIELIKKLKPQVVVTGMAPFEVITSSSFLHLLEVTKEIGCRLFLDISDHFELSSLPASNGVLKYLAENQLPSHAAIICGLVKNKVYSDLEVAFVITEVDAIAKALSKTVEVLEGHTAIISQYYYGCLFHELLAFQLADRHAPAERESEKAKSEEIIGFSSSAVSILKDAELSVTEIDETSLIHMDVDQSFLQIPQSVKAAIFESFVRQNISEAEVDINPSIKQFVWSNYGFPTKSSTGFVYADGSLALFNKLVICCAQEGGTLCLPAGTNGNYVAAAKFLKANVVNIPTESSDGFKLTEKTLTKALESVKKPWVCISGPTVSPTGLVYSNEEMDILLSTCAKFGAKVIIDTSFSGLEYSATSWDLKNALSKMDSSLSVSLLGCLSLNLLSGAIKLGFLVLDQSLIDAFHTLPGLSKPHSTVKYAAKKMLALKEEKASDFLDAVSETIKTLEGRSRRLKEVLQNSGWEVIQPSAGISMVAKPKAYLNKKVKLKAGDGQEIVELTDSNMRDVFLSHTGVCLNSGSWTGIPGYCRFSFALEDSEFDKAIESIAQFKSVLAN

T2: MMT from Hordeum vulgare (Hordeum vulgare, UniProt Q9MBC2)
T2 construct: gene MMT1; recombinant, probably pMALc2x (MBP fusion), E. coli
T2 sequence (Q9MBC2 1-1088): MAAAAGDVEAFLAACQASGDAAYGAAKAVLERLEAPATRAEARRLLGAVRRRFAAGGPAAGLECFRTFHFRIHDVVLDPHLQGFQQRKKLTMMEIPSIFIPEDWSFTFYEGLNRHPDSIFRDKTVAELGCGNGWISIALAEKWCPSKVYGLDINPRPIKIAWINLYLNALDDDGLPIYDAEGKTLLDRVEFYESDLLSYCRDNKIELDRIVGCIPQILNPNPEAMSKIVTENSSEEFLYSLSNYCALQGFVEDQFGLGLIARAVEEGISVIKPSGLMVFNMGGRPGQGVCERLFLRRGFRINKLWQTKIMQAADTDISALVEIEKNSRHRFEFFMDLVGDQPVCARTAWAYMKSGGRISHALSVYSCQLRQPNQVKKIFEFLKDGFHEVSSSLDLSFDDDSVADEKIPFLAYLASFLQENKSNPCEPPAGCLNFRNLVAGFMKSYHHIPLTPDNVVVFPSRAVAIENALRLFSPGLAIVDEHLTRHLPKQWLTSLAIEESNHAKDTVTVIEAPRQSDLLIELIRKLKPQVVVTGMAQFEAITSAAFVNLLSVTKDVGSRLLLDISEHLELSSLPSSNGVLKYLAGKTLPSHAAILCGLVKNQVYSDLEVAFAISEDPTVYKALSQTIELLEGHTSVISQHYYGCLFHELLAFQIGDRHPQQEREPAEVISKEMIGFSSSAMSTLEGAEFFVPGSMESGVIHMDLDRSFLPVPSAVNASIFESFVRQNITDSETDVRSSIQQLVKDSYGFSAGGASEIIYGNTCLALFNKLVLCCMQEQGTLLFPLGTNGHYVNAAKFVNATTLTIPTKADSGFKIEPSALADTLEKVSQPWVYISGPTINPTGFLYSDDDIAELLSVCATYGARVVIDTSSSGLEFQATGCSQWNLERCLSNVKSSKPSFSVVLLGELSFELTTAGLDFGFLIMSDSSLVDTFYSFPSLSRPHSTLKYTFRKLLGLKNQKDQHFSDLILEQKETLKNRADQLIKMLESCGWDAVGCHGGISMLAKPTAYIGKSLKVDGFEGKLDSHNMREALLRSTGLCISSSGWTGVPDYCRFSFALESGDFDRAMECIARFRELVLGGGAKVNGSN


What was measured:
[1] = target: T1, MMT from Arabidopsis thaliana; test: in vitro MMT assay; type: biochemical; conditions: 1 mM L-methionine, 1 mM S-adenosylmethionine, Tris-HCl 20 mM pH 7.2, DTT 1 mM, 25 °C
MMT from Hordeum vulgare = target: T2, MMT from Hordeum vulgare; test: in vitro MMT assay; type: biochemical; conditions: 1 mM L-methionine, 1 mM S-adenosylmethionine, Tris-HCl 20 mM pH 7.2, DTT 1 mM, 25 °C
[2] = substrate: C[S+](C)CC[C@H](N)C(=O)O; test: NMR initial rates of DMSP-amine formation; type: biochemical, Sporobolus anglicus; conditions: Tris-HCl 20 mM pH 7.2, 0.1 mM pyridoxal 5'-phosphate, 25 °C

Molecule | in vitro MMT assay [1] | in vitro MMT assay (MMT from Hordeum vulgare) | Km [2] [µM]
CSCC[C@H](N)C(=O)O [L-methionine] | SaMMT1 in vitro activity was comparable to previously characterised plant MMTs from Arabidopsis thaliana | plant MMTs from Arabidopsis thaliana and Hordeum vulgare | –
SaSDC (SaODC), S-methylmethionine decarboxylase (Sporobolus anglicus) (protein, full-length ORF from transcriptome, synthetic gene, pMALc2x (MBP fusion), E. coli BL21(DE3), amylose resin) MVGGSPMPMQAMLVVPGVKDRKVLSFKGDALKENDAIRSITSSTPAQRSAFHVLDLAKVVDLYRAWRRALPNVRPYYAVKCNSEPALLGALAALGAGFDCASHAEIDAVLALGVHPSSIVYANPCKPESHLEHAAAAGVNLTTYDSEEEVAKVRRCHPRCELLLRIKGPDDEEAQCDLGIKYGALADEVVPLLRAAQRAGVPVAGVAFNVGSPASRMDLYRDAIEAARAAFDAAAGLGMPPMRVLDIGGGFTAGATFEEAAAVINDALARHFGDLPYVEVISEPGRYFVKKAITLAARVIGKRTRGEVREYWIDDGVYGSFNCVIMDHYKPRPRPLVTPRPGEAKYTSTVFGPTCDSQDMVVTGYKLPEMSVGDWLVFDDMGAYTTAAGSKFNGFDTSDIKIYLAYST | – | – | 2130 ± 200

— paper PMC11464771, “Elucidation of Spartina dimethylsulfoniopropionate synthesis genes enables engineering of stress tolerant plants” (Nature Communications, 2024)
